Laboratory results: patent US9302998B2, “Aryl triazole compounds with antitumoural activity” (SIGMA-TAU RESEARCH SWITZERLAND S.A., priority 2010, dated 2016)

Tests used:
A431 epidermoid = assay: Sulphorodamine B test at single concentration, A431; assay type: cell-based; conditions: Homo sapiens, A-431; 500 nM, 72 h
Experimental: (§1) The antiproliferative activity of novel Hsp90 inhibitors was also evaluated on various cancerous cell lines by means of the sulphorodamine B test (i.e., NCI-H460 non-small cell lung carcinoma, A431 epidermoid, A2780 ovarian, MDA-MB436 triple-negative breast, U87MG glioblastoma, A498 renal, HCT116 colon, MeWo melanoma, MiaPaCa2 pancreas, HeLa cervix uteri, NB4 promyelocytic leukemia). NCI-H460, A431, MDA-MB436, A2780, A498, HeLa, NB4 tumour cells were grown in RPMI 1640 containing 10% fetal bovine serum (i.e., FBS from GIBCO), L-glutamine, and 50 μg/ml gentamycin sulfate.
(§2) All cell lines were maintained in a 37° C. incubator with saturated humidity and an atmosphere containing 95% air and 5% CO2, and were sub-cultured every 2-3 days. Tumour cells were seeded in 96-well tissue culture plates at approximately 10% confluence and were allowed to attach and recover for 24 h.
(§3) Varying concentrations of the drugs were then added to each well to calculate their IC50 value (the concentration which inhibits the 50% of cell survival). The plates were incubated at 37° C. for 72 h. At the end of the treatment, the plates were washed by remotion of the supernatant and addition of PBS 3 times. 200 μl PBS and 50 μl of cold 80% trichloroacetic acid (TCA) were added. The plates were incubated on ice for at least 1 h. TCA was removed, the plates were washed 3 times by immersion in distilled-water and dried on paper and at 40° C. for […]. Then 200 μl of 0.4% sulphorodamine B in 1% acetic acid were added. The plates were incubated at room temperature for 30 min. Sulphorodamine B was removed, the plates were washed by immersion in 1% acetic acid for 3 times, then they were dried on paper and at 40° C. for 5 min. Then, 200 μl Tris 10 mM were added, the plates were kept under stirring for 20 min. The cell survival was determined as optical density by a Multiskan […] at 540 nm. The amount of cells killed was calculated as the percentage decrease in sulphorodamine B binding compared with control cultures.
(§4) The other cell lines were screened against one single concentration of the various inhibitors (i.e., 500 nM), all experiments being made in octuplicate, following the protocol described at example 35. Since NB4 cell line was grown in suspension, a further step of centrifugation (i.e., 1600 g for 10 min) was added after the 72 hour incubation period.

A2780 ovarian = assay: Sulphorodamine B test at single concentration, A2780; assay type: cell-based; conditions: Homo sapiens, 500 nM, 72 h
Experimental: as §1, §2, §3, §4

MiaPaCa2 pancreas = assay: Sulphorodamine B test at single concentration, MiaPaCa2; assay type: cell-based; conditions: Homo sapiens, MIA PaCa-2; 500 nM, 72 h
Experimental: as §1
MiaPaCa2 cells were cultured in DMEM medium containing 10% FBS, L-glutamine, and 50 μg/ml gentamycin sulfate.
as §2, §3, §4

HeLa cervix uteri = assay: Sulphorodamine B test at single concentration, HeLa; assay type: cell-based; conditions: Homo sapiens, 500 nM, 72 h
Experimental: as §1, §2, §3, §4

[1] = tested on: MDA-MB436 triple-negative breast; assay: Sulphorodamine B test at single concentration, MDA-MB436; assay type: cell-based; conditions: Homo sapiens, MDA-MB-436; 500 nM, 72 h
Experimental: as §1, §2, §3, §4

HCT116 colon = assay: Sulphorodamine B test at single concentration, HCT116; assay type: cell-based; conditions: Homo sapiens, HCT-116; 500 nM, 72 h
Experimental: as §1
HCT116 cells were cultured in McCoy's medium containing 10% FBS, L-glutamine, and 50 μg/ml gentamycin sulfate.
as §2, §3, §4

[2] = tested on: NB4 promyelocytic leukemia; assay: Sulphorodamine B test at single concentration, NB4; assay type: cell-based; conditions: 500 nM, 72 h, suspension cells
Experimental: as §1, §2, §3, §4

U87MG glioblastoma = assay: Sulphorodamine B test at single concentration, U87MG; assay type: cell-based; conditions: Homo sapiens, U-87 MG; 500 nM, 72 h
Experimental: as §1
(§5) MeWo and U87-MG cells were cultured in Eagle's Minimum Essential Medium (i.e., EMEM) containing 10% FBS, L-glutamine, 1 mM sodium pyruvate, 0.1 mM non-essential amino acids, 1.5 g/l sodium bicarbonate, and 50 μg/ml gentamycin sulphate.
as §2, §3, §4

Hsp90 = target: T1, Hsp90 (Homo sapiens, UniProt P07900); assay: Fluorescence Polarization (FP) binding, GM-BODIPY displacement from Hsp90; conditions: GM-BODIPY tracer, 4° C. for 4 hours
T1 construct: purchased Stressgen SPP-776
Experimental: GM-BODIPY (PerkinElmer, CUSN60342000MG) was previously dissolved in DMSO to obtain 10 mM stock solutions and kept at −20° C. until use.
Hsp90 (Stressgen, SPP-776), was previously dissolved in assay buffer (HFB) to form 2.2 μM stock solutions and kept at −80° C. until use.
The compounds were previously dissolved in DMSO to obtain stock solutions and kept at −20° C. The day of experiment, the compounds were prepared by serial dilutions in assay buffer (HFB) containing 20 mM HEPES (K) pH 7.3, 50 mM KCl, 5 mM MgCl2, 20 mM Na2MoO4 and 0.01% NP40. Before each use, 0.1 mg/ml Bovine Gamma globulin and 2 mM DTT were freshly added.
Fluorescence Polarization (FP) was performed in Opti-Plate™-96F well plates (Perkin Elmer, Zaventem, Belgium) using a plate reader (Wallac Envision 2101 multilabel reader, Perkin Elmer, Zaventem, Belgium). To evaluate the binding affinity of the molecules, 50 μl of the GM-BODIPY solution (100 nM) were added to 125 nM of Hsp90 in the presence of 5 μl of the test compounds at increasing concentrations. The plate was mixed on a shaker at 4° C. for 4 hours, and the FP values in mP (millipolarization units) were recorded. The IC50 values were calculated as the inhibitor concentration where 50% of the tracer is displaced; each data point is the result of the average of triplicate wells, and was determined from a plot using nonlinear least-squares analysis. Curve fitting was performed using
Prism GraphPad software program (GraphPad software, Inc., San Diego, Calif.).

A498 renal = assay: Sulphorodamine B test at single concentration, A498; assay type: cell-based; conditions: Homo sapiens, 500 nM, 72 h
Experimental: as §1, §2, §3, §4

[3] = tested on: NCI-H460 non-small cell lung carcinoma; assay: Cytotoxicity assay, sulphorodamine B test, NCI-H460; assay type: cell-based; conditions: Homo sapiens, NCI-H460; 72 h, sulphorodamine B
Experimental: as §1, §2, §3

MeWo melanoma = assay: Sulphorodamine B test at single concentration, MeWo; assay type: cell-based; conditions: Homo sapiens, 500 nM, 72 h
Experimental: as §1, §5, §2, §3, §4

**Q.** Which inhibition at 0.5 µM (A431 epidermoid) does the source give for CCNC(=O)c1nnn(-c2cc(C(C)C)c(O)cc2O)c1-c1ccc(CN2CCCC(O)C2)cc1 (racemic) [Example 6, (R,S)-1-(2,4-dihydroxy-5-isopropyl-phenyl)-5-[4-(3-hydroxy-piperidin-1-ylmethyl)-phenyl]-1H-[1,2,3]triazole-4-carboxylic acid ethylamide] here?
**A.** Its inhibition at 0.5 µM is no less than 50%.

**Q.** And the inhibition at 0.5 µM (A2780 ovarian)?
**A.** The inhibition at 0.5 µM was no less than 50%.

**Q.** What about the inhibition at 0.5 µM (MiaPaCa2 pancreas) of the same compound?
**A.** The inhibition at 0.5 µM was no less than 50%.

**Q.** What about the inhibition at 0.5 µM (HeLa cervix uteri) of the same compound?
**A.** Its inhibition at 0.5 µM is no less than 50%.

**Q.** What about the inhibition at 0.5 µM [1] of the same compound?
**A.** Its inhibition at 0.5 µM is no less than 50%.

**Q.** And the inhibition at 0.5 µM (HCT116 colon)?
**A.** The inhibition at 0.5 µM was no less than 50%.

**Q.** And the inhibition at 0.5 µM [2]?
**A.** The inhibition at 0.5 µM was no less than 50%.

**Q.** And the inhibition at 0.5 µM (U87MG glioblastoma)?
**A.** The inhibition at 0.5 µM was no less than 50%.

**Q.** What about the IC50 (Hsp90) of the same compound?
**A.** The IC50 was less than 50 nM.

**Q.** And the inhibition at 0.5 µM (A498 renal)?
**A.** The inhibition at 0.5 µM was no less than 50%.

**Q.** What about the IC50 [3] of the same compound?
**A.** The IC50 was 50 to 100 nM.

**Q.** What about the inhibition at 0.5 µM (MeWo melanoma) of the same compound?
**A.** The inhibition at 0.5 µM was no less than 50%.

**Q.** For CC(C)c1cc(-n2nncc2-c2ccc(CN3CCCC(O)C3)cc2)c(O)cc1O (stereo not drawn) [Example 2, 4-{5-[4-(3-hydroxy-piperidin-1-ylmethyl)-phenyl]-[1,2,3]triazol-1-yl}-6-isopropyl-benzene-1,3-diol], which inhibition at 0.5 µM (A431 epidermoid) is on record?
**A.** The inhibition at 0.5 µM was no less than 50%.

**Q.** What about the inhibition at 0.5 µM (A2780 ovarian) of the same compound?
**A.** Its inhibition at 0.5 µM is no less than 50%.

**Q.** And the inhibition at 0.5 µM (MiaPaCa2 pancreas)?
**A.** Its inhibition at 0.5 µM is no less than 50%.

**Q.** What about the inhibition at 0.5 µM (HeLa cervix uteri) of the same compound?
**A.** Its inhibition at 0.5 µM is no less than 50%.

**Q.** And the inhibition at 0.5 µM [1]?
**A.** The inhibition at 0.5 µM was no less than 50%.

**Q.** And the inhibition at 0.5 µM (HCT116 colon)?
**A.** The inhibition at 0.5 µM was no less than 50%.

**Q.** What about the inhibition at 0.5 µM [2] of the same compound?
**A.** The inhibition at 0.5 µM was no less than 50%.

**Q.** And the inhibition at 0.5 µM (U87MG glioblastoma)?
**A.** The inhibition at 0.5 µM was 30 to 50%.

**Q.** What about the IC50 (Hsp90) of the same compound?
**A.** The IC50 was less than 50 nM.

**Q.** What about the inhibition at 0.5 µM (A498 renal) of the same compound?
**A.** Its inhibition at 0.5 µM is 30 to 50%.

**Q.** What about the IC50 [3] of the same compound?
**A.** Its IC50 is less than 50 nM.

**Q.** And the inhibition at 0.5 µM (MeWo melanoma)?
**A.** The inhibition at 0.5 µM was no less than 50%.

**Q.** How did the inhibition at 0.5 µM (A431 epidermoid) turn out when CCNC(=O)c1nnn(-c2cc(C(C)C)c(O)cc2O)c1-c1ccc(CN2CCOCC2)cc1 [Example 5, 1-(2,4-dihydroxy-5-isopropyl-phenyl)-5-(4-morpholin-4-ylmethyl-phenyl)-1H-[1,2,3]triazole-4-carboxylic ethyl amide] was run?
**A.** The inhibition at 0.5 µM was no less than 50%.

**Q.** And the inhibition at 0.5 µM (A2780 ovarian)?
**A.** Its inhibition at 0.5 µM is no less than 50%.

**Q.** What about the inhibition at 0.5 µM (MiaPaCa2 pancreas) of the same compound?
**A.** The inhibition at 0.5 µM was no less than 50%.

**Q.** What about the inhibition at 0.5 µM (HeLa cervix uteri) of the same compound?
**A.** The inhibition at 0.5 µM was no less than 50%.

**Q.** What about the inhibition at 0.5 µM [1] of the same compound?
**A.** Its inhibition at 0.5 µM is no less than 50%.

**Q.** What about the inhibition at 0.5 µM (HCT116 colon) of the same compound?
**A.** Its inhibition at 0.5 µM is no less than 50%.

**Q.** What about the inhibition at 0.5 µM [2] of the same compound?
**A.** Its inhibition at 0.5 µM is no less than 50%.

**Q.** And the inhibition at 0.5 µM (U87MG glioblastoma)?
**A.** The inhibition at 0.5 µM was no less than 50%.

**Q.** What about the IC50 (Hsp90) of the same compound?
**A.** The IC50 was less than 50 nM.

**Q.** And the inhibition at 0.5 µM (A498 renal)?
**A.** Its inhibition at 0.5 µM is no less than 50%.

**Q.** What about the IC50 [3] of the same compound?
**A.** The IC50 was less than 50 nM.

**Q.** What about the inhibition at 0.5 µM (MeWo melanoma) of the same compound?
**A.** The inhibition at 0.5 µM was no less than 50%.

**Q.** Which results are given for CCNC(=O)c1nnn(-c2cc(C(C)C)c(O)cc2O)c1-c1ccc(CN(CC)CCO)cc1 [Example 7, 1-(2,4-dihydroxy-5-isopropyl-phenyl)-5-(4-{[ethyl-(2-hydroxy-ethyl)-amino]-methyl}-phenyl)-1H-[1,2,3]triazole-4-carboxylic acid ethylamide]?
**A.** inhibition at 0.5 µM (A431 epidermoid): ≥ 50%; inhibition at 0.5 µM (A2780 ovarian): ≥ 50%; inhibition at 0.5 µM (MiaPaCa2 pancreas): ≥ 50%; inhibition at 0.5 µM (HeLa cervix uteri): ≥ 50%; inhibition at 0.5 µM [1]: ≥ 50%; inhibition at 0.5 µM (HCT116 colon): ≥ 50%; inhibition at 0.5 µM [2]: ≥ 50%; inhibition at 0.5 µM (U87MG glioblastoma): ≥ 50%; IC50 (Hsp90): < 50 nM; inhibition at 0.5 µM (A498 renal): ≥ 50%; IC50 [3]: 50 to 100 nM; inhibition at 0.5 µM (MeWo melanoma): ≥ 50%
